Assay results reported in patent US9707244B2, “Compositions and methods for treating conditions that affect epidermis” (Gencia Corporation, priority 2013, dated 2017).

system: EpiDerm Full Thickness 400 (EFT-400) tissues; test: Mattek full-thickness skin model (EFT-400) skin thickness; format: cell-based; details: 14 days; average over the three corticosteroids (100 nM dexamethasone, 50 nM betamethasone, 10 nM Clobetasol); p<0.001
Procedure: Following the protocol of Schoepe, we used the FTSM model to determine if co-treatment with Mitocreatine would reduce the loss in skin thickness produced by glucocorticoids.
2.5 mL of EpiDerm Full Thickness 400 (EFT-400) medium was dispensed into each well of the four 6-well plates aseptically in the tissue culture hood. The plates containing the EFT-400 tissues were removed from their plastic packaging and transferred using sterile forceps into the 6-well plates containing the 2.5 mL of EFT-400 media, making sure that no agarose adheres to the insert and that the media makes full contact with the underside of the tissue insert membrane (no air bubbles under the insert). The apical surface of the tissue should remain exposed to air (no media should be added to the side of the insert).
The tissues were equilibrated overnight at 37° C., 5% CO2. Treatment conditions are listed below in Table 5.
Day 2-13: The plates were visually examined and the media containing the test compounds was replenished each day.
Day 15: The inserts were dislodged from the support and the tissue carefully removed from the support with a scalpel.
The tissues were placed in 50 mL conical tubes containing 10% phosphate buffered formalin and sent for sectioning, histological processing and H&E staining Slides were visualized using a Leica Stereoscope equipped with a digital camera. Images were acquired and measured using ExoLabs software. Data was tabulated in Excel and the results were analyzed.

| SMILES | reduction in skin thickness (FTSM) |
| --- | --- |
| C[C@H]1C[C@H]2[C@@H]3CCC4=CC(=O)C=C[C@]4(C)[C@@]3(F)[C@@H](O)C[C@]2(C)[C@@]1(O)C(=O)CO [betamethasone] | 26% |
| C[C@H]1C[C@H]2[C@@H]3CCC4=CC(=O)C=C[C@]4(C)[C@@]3(F)[C@@H](O)C[C@]2(C)[C@@]1(O)C(=O)CCl [Clobetasol] | 26% |
| C[C@@H]1C[C@H]2[C@@H]3CCC4=CC(=O)C=C[C@]4(C)[C@@]3(F)[C@@H](O)C[C@]2(C)[C@@]1(O)C(=O)CO [dexamethasone] | 26% |
